Source: US7253149B2, “Compounds and methods for modulating cell-adhesion mediated drug resistance” (University of South Florida, priority 2000, dated 2007)
Read-outs that look alike come from different tables or passages of the source. Marks after values point to notes of the source that are not given here. One block for each compound: values may come before it. Where no end group is shown, it is not given here. [ ]: non-standard residue; d: D form.

Assays:
fibronectin = test: cell-based or functional assay
[1] = molecular target: integrin α4 subunit (CDw49d) (human) (UniProt P13612); test: flow cytometry (FACS) on 8226/S cells, FITC-conjugated secondary antibody
[2] = molecular target: integrin α4 subunit (CDw49d) (human) (UniProt P13612); test: flow cytometry (FACS) on 8226/LR5 cells, FITC-conjugated secondary antibody
[3] = molecular target: integrin α4 subunit (CDw49d) (human) (UniProt P13612); test: flow cytometry (FACS) on 8226/DOX6 cells, FITC-conjugated secondary antibody
[4] = molecular target: integrin β7 subunit (human) (UniProt P26010); test: flow cytometry (FACS) on 8226/S cells, FITC-conjugated secondary antibody
Chain of UniProt P26010 (P26010 20-798): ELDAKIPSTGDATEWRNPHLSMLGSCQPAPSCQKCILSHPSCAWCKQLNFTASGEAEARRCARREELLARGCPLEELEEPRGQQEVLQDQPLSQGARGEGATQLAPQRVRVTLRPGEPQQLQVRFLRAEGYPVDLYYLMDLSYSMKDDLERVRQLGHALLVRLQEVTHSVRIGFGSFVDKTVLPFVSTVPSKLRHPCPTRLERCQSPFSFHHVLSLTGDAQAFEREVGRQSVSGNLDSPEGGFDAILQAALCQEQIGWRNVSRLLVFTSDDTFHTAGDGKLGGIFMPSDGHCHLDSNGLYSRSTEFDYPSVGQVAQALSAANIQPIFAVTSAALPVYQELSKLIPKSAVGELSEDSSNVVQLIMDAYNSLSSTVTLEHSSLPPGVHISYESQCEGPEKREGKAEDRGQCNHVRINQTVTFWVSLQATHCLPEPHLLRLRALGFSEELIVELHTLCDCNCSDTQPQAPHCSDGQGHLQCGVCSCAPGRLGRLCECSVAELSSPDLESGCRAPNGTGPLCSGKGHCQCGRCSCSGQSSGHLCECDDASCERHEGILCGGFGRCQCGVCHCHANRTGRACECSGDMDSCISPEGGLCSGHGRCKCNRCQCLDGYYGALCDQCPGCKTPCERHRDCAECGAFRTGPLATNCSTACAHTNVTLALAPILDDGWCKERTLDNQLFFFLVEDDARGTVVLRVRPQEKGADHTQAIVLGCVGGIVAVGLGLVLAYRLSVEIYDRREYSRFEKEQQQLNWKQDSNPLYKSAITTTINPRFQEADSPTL

[5] = molecular target: integrin β7 subunit (human) (UniProt P26010); test: flow cytometry (FACS) on 8226/LR5 cells, FITC-conjugated secondary antibody
[6] = molecular target: integrin β7 subunit (human) (UniProt P26010); test: flow cytometry (FACS) on 8226/DOX6 cells, FITC-conjugated secondary antibody
U937 cells = test: Microtiter adhesion assay, adhesion of U937 cells to fibronectin; assay type: cell-based; conditions: 5 μg/ml to 80 μg/ml, FIG. 26
[7] = molecular target: VLA-5 (α5β1 integrin) (human) (UniProt P08648); test: cell-based or functional assay
[8] = molecular target: integrin α5 subunit (CDw49e) (human) (UniProt P08648); test: flow cytometry (FACS) on 8226/S cells, FITC-conjugated secondary antibody
[9] = molecular target: integrin α5 subunit (CDw49e) (human) (UniProt P08648); test: flow cytometry (FACS) on 8226/LR5 cells, FITC-conjugated secondary antibody
[10] = molecular target: integrin α5 subunit (CDw49e) (human) (UniProt P08648); test: flow cytometry (FACS) on 8226/DOX6 cells, FITC-conjugated secondary antibody
8226/S = assay type: cell-based, human
K562 cells [11] = test: MTT cytotoxicity assay, FN adhered vs suspension K562 cells; assay type: cell-based
Procedure: Plastic 96-well Immunosorp plates (Nunc, Denmark) are coated with 50 μl (40 μg/ml) FN (Life Technologies) or BSA overnight. Cells are washed once and resuspended in serum-free RPMI 1640, then 2×10^4 (K562) cells are added to each FN coated well. 8×10^3 (K562) cells are added to BSA coated wells. Cells are incubated for 2 hours at 37° C., washed with serum free media, and put back into serum-containing media. Following 24 hours in a tissue culture incubator, drug or vehicle control is added to each well for 90 minutes, media is removed and replaced by drug-free media for 96 hours. In some experiments, the drug is allowed to remain in each well for 96 hours. 50 μl 3-[4,5-Dimethylthiazol-2-yl]-2,5-diphenyltetrazolium bromide;Thiazolyl blue (MTT dye) (Sigma) is added to each well for 4 hours, plates are centrifuged and each well aspirated. Dye is solubilized with 100 μl DMSO and plates are read at 540 nm on an automated microtiter plate reader. A blank well containing only medium and drug is also run as a control in all experiments. IC50 values are calculated by linear regression analysis of percent survival vs. drug concentration.
The MTT assay is used to detect differences in the drug sensitivity of FN adhered vs. suspension-cultured cells following a 90 minutes or 96 hours (continuous) exposure to either mitoxantrone or melphalan (L-phenylalanine mustard or LPAM). After a 96 hour period in a cell incubator, cell survival is determined by the ability of viable cells to reduce MTT dye to formazan. IC50 values are derived through linear regression of the log-linear dose-response plots for each cell line to each drug. Student's T-test is used to analyze differences in drug response using data collected from at least three different experiments. FIGS. 8A and 8B depict representative continuous exposure experiments using mitoxantrone and LPAM, respectively.

K562 cells [12] = assay type: cell-based
8226/S myeloma cells [13] = test: MTT cytotoxicity assay, FN-adhered vs non-adhered 8226/S cells; assay type: cell-based, human; conditions: for IC50: Homo sapiens
8226/S myeloma cells [14] = test: Annexin V apoptotic analysis, FN-adhered vs non-adhered 8226/S cells; assay type: cell-based, human; conditions: 50 uM melphalan, 24 hours
[15] = test system: K562/pcDNA3.1 and K562/VLA-4 cells; test: Annexin V apoptosis analysis of α4 and empty vector transfectants adhered to FN with blocking antibodies; assay type: cell-based; conditions: for level of cytoprotection in comparison to drug treated suspension cells: 100 μM LPAM 90 minutes, 24 hours; for protection against melphalan-induced apoptosis: α5 blocking antibody prior to adhesion
K562 cells [16] = test: Adhesion of K562 cells to FN in presence of AG957; assay type: cell-based; conditions: concentrations of inhibitor used in cytotoxicity assays
Procedure: Cellular adhesion to FN is determined.
The BCR/ABL kinase is believed to be critical to the survival of CML cells through its effects on a number of signal transduction pathways. Inhibitors of this fusion protein show promise as apoptosis-inducing drugs in CML cells. BCR/ABL inhibition by relatively high doses of the tyrphostin AG957 can have negative effects on FN adhesion. At the concentrations of inhibitor used in cytotoxicity assays, the adhesion of K562 cells to FN is not affected by more than 20–40 percent.

[17] = test system: BCR/ABL-associated tyrosine kinase activity; test: Anti-phosphotyrosine immunoblotting of AG957 treated K562 cells; conditions: 20 μM AG957, four hours

level of cytoprotection against melphalan-induced apoptosis in comparison to drug treated suspension cells (Annexin V, flow cytometry) (fibronectin): 20.6 percent
Compound: VLA-4 (α4β1 integrin, Very Late Activation Antigen 4) (from UniProt P13612 34-1032; P05556 21-798)

mean fluorescence intensity [1]: 10.4
mean fluorescence intensity [2]: 46.5
mean fluorescence intensity [3]: 69
Compound: monoclonal antibody P4G9 (anti-CDw49d, α4)

mean fluorescence intensity [4]: 5.72
mean fluorescence intensity [5]: 40.2
mean fluorescence intensity [6]: 18.5
Compound: monoclonal antibody FIB504 (anti-β7)

Compound: kmviywkag ([dK][dM][dV][dI][dY][dW][dK][dA]G) [RZ-3, D-amino acid peptide Lys-Met-Val-Ile-Tyr-Trp-Lys-Ala-Gly, each amino acid a D-amino acid]
effect on adhesion of U937 cells to FN (U937 cells): effective in preventing FN adhesion

level of cytoprotection against melphalan-induced apoptosis in comparison to drug treated suspension cells (Annexin V, flow cytometry) [7]: 0 percent
mean fluorescence intensity [8]: 14.2
mean fluorescence intensity [9]: 11.9
mean fluorescence intensity [10]: 7.32
Compound: monoclonal antibody P1D6 (anti-CDw49e, α5)

Compound: COc1cccc2c1C(=O)c1c(O)c3c(c(O)c1C2=O)C[C@@](O)(C(=O)CO)C[C@@H]3O[C@H]1C[C@H](N)[C@H](O)[C@H](C)O1 [doxorubicin, Doxorubicin]
effect of acute exposure on cell surface integrin expression (8226/S; wide range of concentrations, 1–48 hours): no immediate effects

Compound: O=C1c2c(O)ccc(O)c2C(=O)c2c(NCCNCCO)ccc(NCCNCCO)c21 [mitoxantrone]
Fold resistance FN adhered vs suspension (K562 cells [11]; 90 min. exposure): approximately 3.7 fold
Fold resistance FN adhered vs suspension (K562 cells [11]; continuous exposure): 6.8 fold

Compound: Nc1ccn([C@@H]2O[C@H](CO)[C@@H](O)[C@@H]2O)c(=O)n1 [Ara-C]
% Control death (K562 cells [12]): 54.9* %
FN: mean death (K562 cells [12]): 6.2 ± 1.6
Suspension: mean death (K562 cells [12]): 11.3 ± 5.5

Compound: CC[C@]1(O)C[C@H]2CN(CCc3c([nH]c4ccccc34)[C@@](C(=O)OC)(c3cc4c(cc3OC)N(C=O)[C@H]3[C@@](O)(C(=O)OC)[C@H](OC(C)=O)[C@]5(CC)C=CCN6CC[C@]43[C@@H]65)C2)C1 [VCR, vincristine]
FN-mediated protection against the drug (K562 cells [12]; continuous exposure): not significant

level of cytoprotection against melphalan-induced apoptosis in comparison to drug treated suspension cells (Annexin V, flow cytometry) (fibronectin): 29.9 percent
Compound: VLA-5 (α5β1 integrin) (from UniProt P08648 42-1049; P05556 21-798) (receptor)

Compound: N[C@@H](Cc1ccc(N(CCCl)CCCl)cc1)C(=O)O [LPAM, L-phenylalanine nitrogen mustard]
IC50 (8226/S myeloma cells [13]; read-out: mean IC50 value for FN-adhered cells): 48 µM
IC50 (8226/S myeloma cells [13]; read-out: mean IC50 value for cells grown on BSA): 30 µM
mean difference FN-adhered vs BSA (8226/S myeloma cells [13]; n=3): 1.7
percentage of apoptotic cells, FN-adhered (8226/S myeloma cells [14]): 16.53%
percentage of apoptotic cells, non-adhered (8226/S myeloma cells [14]): 21.5%
IC50 (K562 cells [11]; Homo sapiens, K562, 1.5 h, 90 min. exposure, FN adhered, read-out: Fibronectin mean IC50): 190 µM
IC50 (K562 cells [11]; Homo sapiens, K562, 1.5 h, 90 min. exposure, read-out: Suspension mean IC50): 29.3 µM
IC50 (K562 cells [11]; Homo sapiens, K562, 1.5 h, 90 minutes exposure, text b188, read-out: mean IC50 suspension (printed without exponent and unit)): 29.3 µM
IC50 (K562 cells [11]; Homo sapiens, K562, continuous (96 hours) exposure, FN adhered, read-out: Fibronectin mean IC50): 57.3 µM
IC50 (K562 cells [11]; Homo sapiens, K562, continuous (96 hours) exposure, read-out: Suspension mean IC50): 25.5 µM
Fold resistance FN adhered vs suspension (K562 cells [11]; continuous exposure): 2.25 fold
FN: mean death (K562 cells [12]; 100 μM, 1 hr): 11.0 ± 8.3
Suspension: mean death (K562 cells [12]; 100 μM, 1 hr): 37.5 ± 24.0
% Control death (K562 cells [12]; 100 μM, 1 hr, FN vs suspension): 29.3* %
FN: mean death (K562 cells [12]; 100 μM, cont. exp.): 23.3 ± 6.4
Suspension: mean death (K562 cells [12]; 100 μM, cont. exp.): 39.8 ± 3.2
% Control death (K562 cells [12]; 100 μM, cont. exp., FN vs suspension): 58.5* %
level of cytoprotection in comparison to drug treated suspension cells ([15]; K562/VLA-4 adhering through both α4 and α5): 30.0±1.5%
level of cytoprotection in comparison to drug treated suspension cells ([15]; K562/pcDNA3.1 adhered through α5 alone): 29.9±5.3%
protection against melphalan-induced apoptosis ([15]; K562/VLA-4): 20.6±1.9%
protection against melphalan-induced apoptosis ([15]; K562/pcDNA3.1): 0±11.1%
effect of acute exposure on cell surface integrin expression (8226/S): no immediate effects

Compound: COC(=O)c1ccc(NCc2cc(O)ccc2O)cc1 [AG957]
fold resistance of FN adhered cells over suspension cells (K562 cells [11]; AG957 for 96 hours): 3.6
IC50 (K562 cells [11]; AG957 for 96 hours, three independent experiments, read-out: mean IC50 FN adhered cells): 12.9 µM
IC50 (K562 cells [11]; AG957 for 96 hours, three independent experiments, read-out: mean IC50 suspension grown cells): 3.6 µM
effect on adhesion of K562 cells to FN (K562 cells [16]): 20–40%
BCR/ABL associated tyrosine phosphorylation [17]: completely abrogated
